{"source": "paper PMC6591635", "about": "“Advancing the Therapeutic Potential of Indoleamides for Tuberculosis” (Antimicrobial Agents and Chemotherapy, 2019)", "origin": "cited, not measured here", "test_system": "M. tuberculosis H37Rv", "settings": "M. tuberculosis H37Rv; concentration used as 1× MIC; cited from earlier work", "data": [{"smiles": "Cc1cc(C)c2cc(C(=O)NC3CCCCCCC3)[nH]c2c1", "note": "[compound 1]", "values": [{"measurement": "MIC (1× MIC)", "value": 4, "unit": "ng/mL"}]}]}
